Where two headings read alike, the source gives them in different places. Where no end group is shown, it is not given here.
Assays:
[1] = target: T1, angiotensin I-converting enzyme (ACE) (Oryctolagus cuniculus, UniProt P12822); assay: ACE-inhibitory activity determination by HPLC (hippuric acid from Hip-His-Leu); assay type: biochemical; settings: HPLC of hippuric acid, Hip-His-Leu 5 mM, sodium borate buffer 50 mM pH 8.1, ACE 0.1 U/mL, 37°C 60 min, mean ± SD, triplicate, read-out: IC50 of ACE inhibition
T1 sequence (P12822 34-1310): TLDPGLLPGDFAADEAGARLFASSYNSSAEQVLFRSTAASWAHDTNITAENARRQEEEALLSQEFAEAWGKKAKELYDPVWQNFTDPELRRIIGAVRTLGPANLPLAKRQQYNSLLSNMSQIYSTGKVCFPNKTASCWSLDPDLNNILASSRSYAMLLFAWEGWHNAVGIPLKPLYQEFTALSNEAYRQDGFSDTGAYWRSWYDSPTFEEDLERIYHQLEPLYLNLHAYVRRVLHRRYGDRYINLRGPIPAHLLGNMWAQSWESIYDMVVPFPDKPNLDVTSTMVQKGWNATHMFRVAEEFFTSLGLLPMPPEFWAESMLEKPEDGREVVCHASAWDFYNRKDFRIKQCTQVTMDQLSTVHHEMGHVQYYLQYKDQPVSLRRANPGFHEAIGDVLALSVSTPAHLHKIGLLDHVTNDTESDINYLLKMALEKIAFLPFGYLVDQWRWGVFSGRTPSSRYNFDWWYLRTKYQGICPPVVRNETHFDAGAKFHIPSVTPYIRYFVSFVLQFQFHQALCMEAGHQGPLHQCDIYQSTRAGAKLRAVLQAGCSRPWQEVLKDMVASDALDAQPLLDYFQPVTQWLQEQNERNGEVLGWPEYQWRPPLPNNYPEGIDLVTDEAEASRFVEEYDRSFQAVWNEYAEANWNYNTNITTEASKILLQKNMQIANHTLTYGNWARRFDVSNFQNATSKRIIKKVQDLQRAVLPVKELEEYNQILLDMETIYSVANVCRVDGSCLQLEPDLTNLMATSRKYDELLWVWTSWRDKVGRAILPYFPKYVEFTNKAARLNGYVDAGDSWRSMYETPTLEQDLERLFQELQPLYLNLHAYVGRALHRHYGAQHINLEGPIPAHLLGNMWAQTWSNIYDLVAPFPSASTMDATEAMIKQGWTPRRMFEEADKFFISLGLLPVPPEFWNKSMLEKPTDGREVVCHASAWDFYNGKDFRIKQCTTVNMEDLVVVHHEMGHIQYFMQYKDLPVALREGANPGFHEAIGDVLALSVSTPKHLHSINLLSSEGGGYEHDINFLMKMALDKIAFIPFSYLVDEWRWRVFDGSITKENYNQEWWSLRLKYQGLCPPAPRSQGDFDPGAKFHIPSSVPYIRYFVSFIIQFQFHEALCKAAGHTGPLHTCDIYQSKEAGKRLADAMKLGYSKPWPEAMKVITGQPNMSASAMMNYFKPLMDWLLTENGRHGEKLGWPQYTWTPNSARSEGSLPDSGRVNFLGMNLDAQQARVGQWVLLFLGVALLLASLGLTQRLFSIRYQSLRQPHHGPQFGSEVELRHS
Experimental: The determination was measured by HPLC, with slight changes according to the procedure described by [Gonzalez-Gonzalez et al. (2011)]. The sample (20 μL) was dissolved in 120 μL Hip-His-Leu (5 mM) with sodium borate buffer (50 mM, pH 8.1). After incubation at 37°C for 3 min, the ACE solution (0.1 U/mL, 10 μL) was added to the sample and incubated for 60 min at the above temperature. Subsequently, 0.15 mL HCl (1 M) was used to terminate the reaction. The content of hippuric acid (HA) produced by reaction was determined by reverse-phase high-performance liquid chromatography (RP-HPLC, Waters Corporation, United States). A symmetry C18 Column (3.9 × 150 mm, 5 μm, Waters, United States) was used with the Waters HPLC model Alliance 2690 system, which included an ultraviolet detector (Waters, United States). […] Flow rate was 0.8 mL/min. The sample (6 μL) was filtered (0.45 μm filter) and measured at 228 nm. A standard curve was generated using concentrations of standard HA and peak areas. The ACE-inhibitory activity was determined as:
ACEinhibitoryactivity(%)=[HA]control-[HA]sample/[HA]control×100%
The concentration of inhibitor that inhibits 50% ACE activity is defined as IC50 value.

ACE = settings: read-out: IC50 of ACE inhibition, cited from earlier work
Description: ACE-inhibitory peptides from bovine milk protein have been described previously ([De Leo et al., 2009]). These bioactive peptides are typically produced by enzymatic hydrolysis, microbial fermentation, or genetic engineering. In particular, more attention has been focused on microbial fermentation as the food grade bacteria, such as lactic acid bacteria (LAB), provide enriched food bioactive substances ([Castellano et al., 2013]). Furthermore, the hydrolytic processing of milk protein through the action of chymosin and Lactobacillus casei can also improve cheese flavor ([Lemieux et al., 2010]) ...

[2] = peptides from low-fat milk fermented with several LAB, ref Chen et al. (2007)

Substance | IC50 [1] [µM] | further results
Gly-Val-Trp |  | IC50 (ACE; [2]): 240 µM
Gly-Thr-Trp |  | IC50 (ACE; [2]): 464 µM
RLSFDP [literature peptide from β-lactoglobulin hydrolysate (f148-153), sour milk fermented with Lb. helveticus LB10] |  | IC50 (ACE; from sour milk fermented with Lb. helveticus LB10, β-lactoglobulin hydrolysate (f148-153), ref Pan and Guo (2010)): 177 µM
KPAGDF [Lys-Pro-Ala-Gly-Asp-Phe] | 77.5 ± 2.74 | 

The next lines start with results.

IC50 [1] [µM] | Substance | further results
189 ± 4.61 | KKAAMAM [Lys-Lys-Ala-Ala-Met-Ala-Met] | 
201 ± 5.24 | LDHVPGGAR [Leu-Asp-His-Val-Pro-Gly-Gly-Ala-Arg] | 
110 ± 3.87 | KAALSGM [Lys-Ala-Ala-Leu-Ser-Gly-Met] | 
